Target: T1, hGPR40 (Homo sapiens, UniProt O14842)
T1 construct: 3x FLAG; expressed in transfected cells
Experiment: FDSS-Based Intracellular Calcium Assay
Type: cell-based
Settings: cells expressing GPR40, intracellular Ca2+ response
Method in brief: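 Flag-tagged GPR40-expressing cells plated overnight in serum-free, phenol red-free DMEM. Compounds added from DMSO stocks, diluted in assay buffer and added as 3x solution. Intracellular Ca^2+ flux read by fluorescence on an FDSS reader.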

T1 sequence (O14842 whole entry): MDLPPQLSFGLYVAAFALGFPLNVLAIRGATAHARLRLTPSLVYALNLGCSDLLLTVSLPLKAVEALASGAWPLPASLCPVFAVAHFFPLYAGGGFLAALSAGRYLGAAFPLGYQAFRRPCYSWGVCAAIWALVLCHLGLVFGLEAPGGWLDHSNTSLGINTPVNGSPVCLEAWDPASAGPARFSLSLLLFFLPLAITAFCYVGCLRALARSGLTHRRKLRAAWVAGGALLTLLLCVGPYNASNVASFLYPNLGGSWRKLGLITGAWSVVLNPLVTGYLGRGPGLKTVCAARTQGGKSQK

SMILES	EC50 [nM]
N#CC1=NN(c2ccc(OCc3ccc(Cl)cc3Cl)cc2)C(CC(=O)O)C1 (racemic) [Example 33, 2-(3-cyano-1-(4-(2,4-dichlorobenzyloxy)phenyl)-4,5-dihydro-1H-pyrazol-5-yl)acetic acid]	300
COc1ccc(F)c(-c2ccc(Cc3ccc(N4N=C(C(F)(F)F)C(C5CC5)C4CC(=O)O)cc3)c(C)c2)c1 (single isomer, unassigned) [Example 43, Isomer 2, 2-(4-cyclopropyl-1-(4-((2′-fluoro-5′-methoxy-3-methylbiphenyl-4-yl)methyl)phenyl)-3-(trifluoromethyl)-4,5-dihydro-1H-pyrazol-5-yl)acetic acid]	90
Cc1ccccc1Oc1ccc(N2N=C(C#N)CC2CC(=O)O)cc1 (single isomer, unassigned) [Example 3, Isomer 2, 2-(3-cyano-1-(4-(o-tolyloxy)phenyl)-4,5-dihydro-1H-pyrazol-5-yl)acetic acid]	560
COc1ccc(F)c(-c2ccc(Cc3ccc(N4N=C(C(F)(F)F)C(c5ccccc5)C4CC(=O)O)cc3)c(C)c2)c1 (single isomer, unassigned) [Example 47, Isomer 1, 2-(1-(4-((2′-fluoro-5′-methoxy-3-methylbiphenyl-4-yl)methyl)phenyl)-4-phenyl-3-(trifluoromethyl)-4,5-dihydro-1H-pyrazol-5-yl)acetic acid]	890
COc1ccc(F)c(-c2ccc(Cc3ccc(N4N=C(c5ccccc5)C(C)C4CC(=O)O)cc3)c(C)c2)c1 (single isomer, unassigned) [Example 59, Isomer 1, 2-(1-(4-((2′-fluoro-5′-methoxy-3-methyl-[1,1′-biphenyl]-4-yl)methyl)phenyl)-4-methyl-3-phenyl-4,5-dihydro-1H-pyrazol-5-yl)acetic acid]	6470
Cc1ccccc1Oc1ccc(N2N=C(c3nnnn3C)CC2CC(=O)O)cc1 (racemic) [Example 7, 2-(3-(1-methyl-1H-tetrazol-5-yl)-1-(4-(o-tolyloxy)phenyl)-4,5-dihydro-1H-pyrazol-5-yl)acetic acid]	3200
Cc1ccccc1Oc1ccc(N2N=C(C#N)CC2CC(=O)O)cc1 (single isomer, unassigned) [Example 3, Isomer 1, 2-(3-cyano-1-(4-(o-tolyloxy)phenyl)-4,5-dihydro-1H-pyrazol-5-yl)acetic acid]	37
N#CC1=NN(c2ccc(Oc3cccc(Cl)c3)cc2)C(CC(=O)O)C1 (racemic) [Example 4, 2-(1-(4-(3-chlorophenoxy)phenyl)-3-cyano-4,5-dihydro-1H-pyrazol-5-yl)acetic acid]	220
Cc1ccccc1Oc1ccc(N2N=C(C(F)(F)F)CC2CC(=O)O)cc1 (single isomer, unassigned) [Example 11, Isomer 2, 2-(1-(4-(o-tolyloxy)phenyl)-3-(trifluoromethyl)-4,5-dihydro-1H-pyrazol-5-yl)acetic acid]	1850
CC(C)c1ccccc1Oc1ccc(N2N=C(C#N)CC2CC(=O)O)cc1 (racemic) [Example 29, 2-(3-cyano-1-(4-(2-isopropylphenoxy)phenyl)-4,5-dihydro-1H-pyrazol-5-yl)acetic acid]	430
COc1ccc(F)c(-c2ccc(Cc3ccc(N4N=C(c5ccc(Cl)cc5)[C@@H](C)[C@@H]4CC(=O)O)cc3)c(C)c2)c1 (single isomer, unassigned) [Example 66, Isomer 1]	13
COc1ccc(F)c(-c2ncc(Cc3ccc(N4N=C(C(F)(F)F)[C@@H](C)[C@@H]4CC(=O)O)cc3)c(C)n2)c1 (single isomer, unassigned) [Example 63]	700
COc1ccc(F)c(-c2ccc(Cc3ccc(N4N=C(c5cc(C)on5)[C@@H](C)[C@@H]4CC(=O)O)cc3)c(C)c2)c1 (single isomer, unassigned) [Example 69, isomer 2]	2560
Cc1cc(Oc2ccc(N3N=C(C#N)CC3CC(=O)O)cc2)c(C)cc1Br (racemic) [Example 31, 2-(1-(4-(4-bromo-2,5-dimethylphenoxy)phenyl)-3-cyano-4,5-dihydro-1H-pyrazol-5-yl)acetic acid]	360
COc1ccc(Cc2ccc(N3N=C(C#N)CC3CC(=O)O)cc2)c(C)c1 (racemic) [Example 37, 2-(3-cyano-1-(4-(4-methoxy-2-methylbenzyl)phenyl)-4,5-dihydro-1H-pyrazol-5-yl)acetic acid]	150
CCC1C(C(F)(F)F)=NN(c2ccc(Cc3ccc(-c4cc(OC)ccc4F)cc3C)cc2)C1CC(=O)O (single isomer, unassigned) [Example 44, Isomer 1, 2-(4-ethyl-1-(4-((2′-fluoro-5′-methoxy-3-methylbiphenyl-4-yl)methyl)phenyl)-3-(trifluoromethyl)-4,5-dihydro-1H-pyrazol-5-yl)acetic acid]	1310
Cc1cc(-c2cnccn2)ccc1Cc1ccc(N2N=C(C(F)(F)F)[C@@H](C)[C@@H]2CC(=O)O)cc1 [Example 76, 2-((4S,5 S)-4-methyl-1-(4-(2-methyl-4-(pyrazin-2-yl)benzyl)phenyl)-3-(trifluoromethyl)-4,5-dihydro-1H-pyrazol-5-yl)acetic acid]	1620
COc1ccc(F)c(-c2ccc(Cc3ccc(N4N=C(C(F)(F)F)CC4CC(=O)O)cc3)cc2C)c1 (single isomer, unassigned) [Example 22, Isomer 2, 2-(1-(4-((2′-fluoro-5′-methoxy-2-methylbiphenyl-4-yl)methyl)phenyl)-3-(trifluoromethyl)-4,5-dihydro-1H-pyrazol-5-yl)acetic acid]	350
COc1ccc(F)c(-c2ccc(Oc3ccc(N4N=C(C(F)(F)F)CC4CC(=O)O)cc3)cc2C)c1 (single isomer, unassigned) [Example 16, Isomer 2, 2-(1-(4-(2′-fluoro-5′-methoxy-2-methylbiphenyl-4-yloxy)phenyl)-3-(trifluoromethyl)-4,5-dihydro-1H-pyrazol-5-yl)acetic acid]	340
COc1ccc(F)c(-c2ccc(Cc3ccc(N4N=C(C(F)(F)F)C(CO)C4CC(=O)O)cc3)c(C)c2)c1 (single isomer, unassigned) [Example 53, Isomer 1, 2-(1-(4-((2′-fluoro-5′-methoxy-3-methyl-[1,1′-biphenyl]-4-yl)methyl)phenyl)-4-(hydroxymethyl)-3-(trifluoromethyl)-4,5-dihydro-1H-pyrazol-5-yl)acetic acid, trans-diastereomer]	170
COc1ccc(F)c(-c2ccc(Cc3ccc(N4N=C(C#N)CC4CC(=O)O)cc3)c(C)c2)c1 (single isomer, unassigned) [Example 34, Isomer 2, 2-(3-cyano-1-(4-((2′-fluoro-5′-methoxy-3-methylbiphenyl-4-yl)methyl)phenyl)-4,5-dihydro-1H-pyrazol-5-yl)acetic acid]	560
COc1ccc(F)c(-c2ccc(Oc3ccc(N4N=C(C(F)(F)F)CC4CC(=O)O)cc3)c(Cl)c2)c1 (single isomer, unassigned) [Example 42, Isomer 2, 2-(1-(4-(3-chloro-2′-fluoro-5′-methoxybiphenyl-4-yloxy)phenyl)-3-(trifluoromethyl)-4,5-dihydro-1H-pyrazol-5-yl)acetic acid]	290
CCC1C(C(F)(F)F)=NN(c2ccc(Cc3ccc(-c4cc(OC)ccc4F)cc3C)cc2)C1CC(=O)O (single isomer, unassigned) [Example 44, Isomer 2, 2-(4-ethyl-1-(4-((2′-fluoro-5′-methoxy-3-methylbiphenyl-4-yl)methyl)phenyl)-3-(trifluoromethyl)-4,5-dihydro-1H-pyrazol-5-yl)acetic acid]	20
Cc1cc(Br)ccc1Oc1ccc(N2N=C(C(F)(F)F)CC2CC(=O)O)cc1 (racemic) [Example 13, 2-(1-(4-(4-bromo-2-methylphenoxy)phenyl)-3-(trifluoromethyl)-4,5-dihydro-1H-pyrazol-5-yl)acetic acid]	160
COc1ccc(F)c(-c2ccc(Cc3ccc(N4N=C(C#N)C(C)C4CC(=O)O)cc3)c(C)c2)c1 (single isomer, unassigned) [Example 52, Isomer 1, 2-(3-cyano-1-(4-((2′-fluoro-5′-methoxy-3-methylbiphenyl-4-yl)methyl)phenyl)-4-methyl-4,5-dihydro-1H-pyrazol-5-yl)acetic acid]	1050
COc1ccc(F)c(-c2ccc(Oc3ccc(N4N=C(C#N)CC4CC(=O)O)cc3)c(C)c2)c1 (racemic) [Example 32, 2-(3-cyano-1-(4-(2′-fluoro-5′-methoxy-3-methylbiphenyl-4-yloxy)phenyl)-4,5-dihydro-1H-pyrazol-5-yl)acetic acid]	190
COc1cc(-c2ccc(Oc3ccc(N4N=C(C(F)(F)F)CC4CC(=O)O)cc3)c(C)c2)c(F)cn1 (single isomer, unassigned) [Example 15, Isomer 1, 2-(1-(4-(4-(5-fluoro-2-methoxypyridin-4-yl)-2-methylphenoxy)phenyl)-3-(trifluoromethyl)-4,5-dihydro-1H-pyrazol-5-yl)acetic acid]	270
COc1ccc(F)c(-c2ccc(Oc3ccc(N4N=C(C(F)(F)F)CC4CC(=O)O)cc3)c(C)c2)c1 (single isomer, unassigned) [Example 14, Isomer 1, 2-(1-(4-(2′-fluoro-5′-methoxy-3-methylbiphenyl-4-yloxy)phenyl)-3-(trifluoromethyl)-4,5-dihydro-1H-pyrazol-5-yl)acetic acid]	165
COc1ccc(F)c(-c2ccc(Oc3ccc(N4N=C(c5ncco5)CC4CC(=O)O)cc3)c(C)c2)c1 (single isomer, unassigned) [Example 8, Isomer 1, 2-(1-(4-(2′-fluoro-5′-methoxy-3-methylbiphenyl-4-yloxy)phenyl)-3-(oxazol-2-yl)-4,5-dihydro-1H-pyrazol-5-yl)acetic acid]	910
COc1ccc(F)c(-c2ccc(Cc3ccc(N4N=C(C(F)(F)F)C(CC5CC5)C4CC(=O)O)cc3)c(C)c2)c1 (single isomer, unassigned) [Example 46, Isomer 1, 2-(4-(cyclopropylmethyl)-1-(4-((2′-fluoro-5′-methoxy-3-methylbiphenyl-4-yl)methyl)phenyl)-3-(trifluoromethyl)-4,5-dihydro-1H-pyrazol-5-yl)acetic acid]	50

— US9656963B2 (BRISTOL-MYERS SQUIBB COMPANY, priority 2012, dated 2017)
